Our source for the IC50 values is US20100227889A1, “Benzimidazole Derivatives” (priority 2006, published 2010).

One may read the IC50 as the concentration at which inhibition is half-maximal.

This test deals with T1, human PCaR (Homo sapiens, UniProt P41180).
T1 construct: expressed in transfected cells; host or cells: CCL39 fibroblasts (stably transfected)
T1 sequence (P41180 20-1078): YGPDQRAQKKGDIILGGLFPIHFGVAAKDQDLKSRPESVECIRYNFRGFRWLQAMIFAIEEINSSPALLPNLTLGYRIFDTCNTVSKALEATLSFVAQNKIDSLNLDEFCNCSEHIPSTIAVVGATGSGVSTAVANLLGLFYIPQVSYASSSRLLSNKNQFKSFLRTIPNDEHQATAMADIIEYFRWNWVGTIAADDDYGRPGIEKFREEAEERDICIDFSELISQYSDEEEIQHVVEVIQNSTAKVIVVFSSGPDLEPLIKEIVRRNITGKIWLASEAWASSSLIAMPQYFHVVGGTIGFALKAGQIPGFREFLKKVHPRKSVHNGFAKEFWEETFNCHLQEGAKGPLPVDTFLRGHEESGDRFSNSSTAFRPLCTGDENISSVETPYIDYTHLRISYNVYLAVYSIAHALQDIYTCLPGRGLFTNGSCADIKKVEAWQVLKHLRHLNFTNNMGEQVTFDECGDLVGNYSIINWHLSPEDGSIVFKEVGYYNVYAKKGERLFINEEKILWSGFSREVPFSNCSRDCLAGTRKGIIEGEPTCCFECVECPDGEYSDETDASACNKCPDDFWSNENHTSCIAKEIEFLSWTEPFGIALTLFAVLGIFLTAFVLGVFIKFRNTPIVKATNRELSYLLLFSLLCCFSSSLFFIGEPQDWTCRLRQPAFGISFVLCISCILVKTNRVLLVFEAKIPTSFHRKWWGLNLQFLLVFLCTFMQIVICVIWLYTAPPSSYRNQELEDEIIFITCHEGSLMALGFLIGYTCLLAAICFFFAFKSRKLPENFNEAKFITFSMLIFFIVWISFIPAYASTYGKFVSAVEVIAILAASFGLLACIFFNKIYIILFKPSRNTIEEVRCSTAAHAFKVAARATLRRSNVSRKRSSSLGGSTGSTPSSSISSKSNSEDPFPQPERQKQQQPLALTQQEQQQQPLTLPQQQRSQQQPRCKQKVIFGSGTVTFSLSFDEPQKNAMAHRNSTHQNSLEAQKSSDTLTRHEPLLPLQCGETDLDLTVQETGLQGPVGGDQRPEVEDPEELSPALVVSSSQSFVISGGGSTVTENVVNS
Briefly: Assay for intracellular free calcium (inhibition of calcium transients stimulated by extracellular calcium). The test is classed as cell-based. The note with it: CCL39 fibroblasts stably transfected with human PCaR; "based on the above described assay". As to the method: An alternative method to determine antagonism at the PCaR consists in measuring the inhibition of intracellular calcium transients stimulated by extracellular calcium. CCL39 fibroblasts stably transfected with human PCaR are seeded at 40′000 cells/well into 96-well Viewplates and incubated for 24 hours. Medium is then removed and replaced with fresh medium containing 2 μM Fluo-3 AM (Molecular Probes, Leiden, The Netherlands), In routine experiments, cells are incubated at 37° C., 5% CO2 for 1 h. Afterwards, plates are washed twice with mHBS and wells are refilled with 100 μl mHBS containing the test compounds. Incubation is continued at room temperature for 15 minutes. To record changes of intracellular free calcium, plates are transferred to fluorescence-imaging plate reader (Molecular Devices, Sunnyvale, Calif., USA). A baseline consisting in 5 measurements of 0.4 seconds each (laser excitation 488 nm) is recorded. Cells are then stimulated with calcium (2.5 mM final), and fluorescence changes recorded over a period of 3 minutes.
`C#CCOc1ncccc1Cc1cc(OC)c2c(nc(-c3ccc(C(C)C)cc3)n2CCOC)c1C(F)(F)F` [Example 9, 2-(4-Isopropyl-phenyl)-7-methoxy-1-(2-methoxy-ethyl)-5-(2-prop-2-ynyloxy-pyridin-3-ylmethyl)-4-trifluoromethyl-1H-benzoimidazole]: the IC50 was 1.8 nM.
Take `COCCn1c(-c2ccc(C(C)C)cc2)nc2c(C(F)(F)F)c(Cc3cccnc3OC(C)C)cc(OC)c21` [Example 8, 5-(2-Isopropoxy-pyridin-3-ylmethyl)-2-(4-Isopropyl-phenyl)-7-methoxy-1-(2-methoxy-ethyl)-4-trifluoromethyl-1H-benzoimidazole]: the IC50 is 3.2 nM.
Under `COCCn1c(-c2ccc(C(C)C)cc2)nc2c(Br)c(Cc3cccnc3SC)cc(OC)c21` [Example 1, 4-Bromo-2-(4-isopropyl-phenyl)-7-methoxy-1-(2-methoxy-ethyl)-5-(2-methylsulfanyl-pyridin-3-ylmethyl)-1H-benzoimidazole] stands 3.4 nM; under `COCCn1c(-c2ccc(C(C)C)cc2)nc2c(C(F)(F)F)c(Cc3cccnc3[S+](C)[O-])cc(OC)c21` (stereo not shown) [Example 3, 2-(4-Isopropyl-phenyl)-5-(2-methanesulfinyl-pyridin-3-ylmethyl)-7-methoxy-1-(2-methoxy-ethyl)-4-trifluoromethyl-1H-benzoimidazole], 2.6 nM.
